From publication PMC8037910, “Effect of Chronic Administration of 5-(3-chlorophenyl)-4-Hexyl-2,4 -Dihydro-3H-1,2,4-Triazole-3-Thione (TP-315)—A New Anticonvulsant Drug Candidate—On Living Organisms” (International Journal of Molecular Sciences, 2021)
Where two headings read alike, the source gives them in different places.

Columns and labels:
[1] = Quantification of TP-315 in mouse serum by HPLC-FL; assay type: in vivo; details: male, Albino Swiss, ip, mice, 47.6 mg/kg i.p. for 14 days, 24 h after the last injection, mean ± SD, read-out: Mean measured concentration of TP-315 in the plasma of the mice
Protocol: The experiments were carried out on adult male Albino Swiss mice weighing 20 ± 5 g. […] The mice from the control group (8 mice) received 0.9% NaCl solution i.p. once daily for 14 days.
After completion of the experimental procedure (on the 15th day—24h after the last injection), the animals were decapitated. Their livers and kidneys were collected for histopathological examination, while blood was drawn for biochemical and morphological tests and for HPLC-FL determination of TP-315 in serum. […]
Serum samples for recovery study and quantification of the examined compound using the standard addition method were prepared by spiking 0.1 mL of TP-315 free serum or the serum of treated mice with 0.4 mL deionized water and 0.5 mL of the appropriate standard solution, providing a calibration range between 0.0125–0.05 mg/L (0.0125, 0.025, 0.0375, and 0.05 mg/L) and QC levels of 0.06, 0.12, and 0.18 mg/L. Investigated serum samples were treated in the same manner as the QCs. […]
The HPLC analysis was carried out using an Elite LaChrom HPLC Merck-Hitachi (Merck, Darmstadt, Germany) equipped with a fluorescence detector (L-2485U) and a column thermostat Jetstream 2 Plus (100375, Knauer). […] The fluorescence detection was performed at an excitation of 265 nm and an emission of 411 nm. […]

[2] = target: T1, CYP2C19 (Homo sapiens, UniProt P33261); test: Vivid CYP450 screening kit, CYP2C19; assay type: biochemical; details: 0.015 µg/mL, 20 min incubation, p < 0.05
T1 construct: purchased Thermo Fisher Scientific
Protocol: Possible inhibitory effect of TP-315 on the catalytic activity of human cytochrome CYP450 enzymes was tested using Vivid CYP450 screening kits (Thermo Fisher Scientific, Waltham, MA, USA) according to the manufacturer’s standard procedure (Vivid BOMCC substrate CYP2B6 blue, Vivid DBOMF substrate CYP3A4 green, Vivid DBOMF substrate CYP3A5 green, Vivid EOMCC substrate CYP2C19 blue, Vivid MOBFC substrate CYP2D6 cyan). The experiment was carried out in the endpoint test mode (reading after 20 min of incubation). The test compound was dissolved in DMSO (starting concentrations, 2.5× concentrated); to avoid the influence of the solvent on the enzyme activity, the results were compared with the solvent control. The influence of TP-315 on the activity of selected enzymes was tested at concentrations of 0.015, 0.1, 0.5, 1, 2.5, 5, and 10 μg/mL. The positive control compounds (inhibitors) were miconazole (for CYP2C19 and CYP2B6), quinidine (for CYP2D6), and ketoconazole (for CYP3A4 and CYP3A5). Inhibitor concentrations were selected according to the manufacturer’s recommendations to achieve ≥90% inhibition. All inhibitors were obtained from Sigma-Aldrich (St. Louis, MO, USA). The BioTek Synergy H1 reader (BioTek Instruments, Inc., USA) was used to read the fluorescence according to the manufacturer’s guidelines. The tests were performed in duplicate.

[3] = test system: maximal electroshock-induced seizure (MES); set-up: method as in PMID 23291122, PMID 25226229, PMID 25090118; details: mice, cited from earlier work

T1 sequence (P33261 whole entry): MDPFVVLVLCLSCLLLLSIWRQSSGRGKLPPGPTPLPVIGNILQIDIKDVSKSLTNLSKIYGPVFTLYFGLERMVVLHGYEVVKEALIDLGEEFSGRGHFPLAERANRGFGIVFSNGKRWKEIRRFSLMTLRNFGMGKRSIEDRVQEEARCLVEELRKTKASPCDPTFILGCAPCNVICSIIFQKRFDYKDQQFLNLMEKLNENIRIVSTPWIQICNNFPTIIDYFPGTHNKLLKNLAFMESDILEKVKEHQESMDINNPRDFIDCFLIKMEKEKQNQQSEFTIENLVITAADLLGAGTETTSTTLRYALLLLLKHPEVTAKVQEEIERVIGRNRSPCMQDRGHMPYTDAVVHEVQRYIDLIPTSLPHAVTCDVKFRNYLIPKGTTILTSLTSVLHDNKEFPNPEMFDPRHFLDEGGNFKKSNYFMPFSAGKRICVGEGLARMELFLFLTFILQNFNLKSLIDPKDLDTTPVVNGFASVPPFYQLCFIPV

CCCCCCn1c(-c2cccc(Cl)c2)n[nH]c1=S [TP-315, 5-(3-Chlorophenyl)-4-hexyl-2,4-dihydro-3H-1,2,4-triazole-3-thione]
concentration at 24 h [1]: 14.5 ± 12.5 ng/mL | Inhibition of CYP2C19 activity compared to the control [2]: statistically significantly inhibited | Anticonvulsant Activity in MES Test ED50 ± S.E. ([3]; pretreatment time 15 min): 47.6 ± 3.8 mg/kg | Anticonvulsant Activity in MES Test ED50 ± S.E. ([3]; pretreatment time 30 min): 68.3 ± 10.3 mg/kg | Anticonvulsant Activity in MES Test ED50 ± S.E. ([3]; pretreatment time 60 min): 98.1 ± 16.4 mg/kg | Anticonvulsant Activity in MES Test ED50 ± S.E. ([3]; pretreatment time 120 min): 159.7 ± 21.7 mg/kg
